What was measured:
[1] = test system: freshly harvested murine bone marrow cells; experiment: Bone marrow colony formation in soft agar (fresh bone marrow); assay type: cell-based
Method: The following numbers of freshly harvested murine bone marrow cells were plated in soft agar in replicates of 6 in 6-well plates: 1×10^5, 5×10^5, or 1×10^6. After 1-3 weeks, type I, II, and III colonies (see FIG. 2 for examples) were enumerated by phase microscopy.
Because of the difficulties anticipated in cloning Xs-dependent cells from heterogenous long-term bone marrow cultures, we decided to adopt a soft agar culture strategy. It is well known that hematopoietic progenitor cells will form colonies when grown in semi-solid medium (Dexter et al., 1984). […] In many bone marrow cell studies, conditions are selected to induce bone marrow cell differentiation. Methyl-cellulose or soft agar supplemented with lineage-promoting growth factors are widely used experimental systems (Dexter et al., 1984). For ideal SACK, we wished to minimize stimuli for differentiation. Therefore, we used agar developed in routine horse serum-supplemented long-term culture medium, without any additional growth factor source, as the gel medium for our studies. We followed procedures developed for detecting anchorage-independent growth of transformed tumor cells.
Given their associated HSC activity, LT-CFCs are predicted to divide with asymmetric cell kinetics. We evaluated whether Xs would increase the frequency of LT-CFC type I colonies in soft agar. Freshly prepared bone marrow cells were plated in soft agar developed in either control medium or medium containing 1 mM or 3 mM Xs.

[2] = test system: adherent cells from long-term bone marrow cultures; experiment: Soft agar colony formation by adherent cells from long-term bone marrow cultures; assay type: cell-based, mice; details: adherent cells from cultures with 0.4 to 1.0 mM Xs
Excerpt: Because of the difficulties anticipated in cloning Xs-dependent cells from heterogenous long-term bone marrow cultures, we decided to adopt a soft agar culture strategy. It is well known that hematopoietic progenitor cells will form colonies when grown in semi-solid medium (Dexter et al., 1984). […] Instead, it simply reflects their natural ability to divide without anchorage. In many bone marrow cell studies, conditions are selected to induce bone marrow cell differentiation. Methyl-cellulose or soft agar supplemented with lineage-promoting growth factors are widely used experimental systems (Dexter et al., 1984). For ideal SACK, we wished to minimize stimuli for differentiation. Therefore, we used agar developed in routine horse serum-supplemented long-term culture medium, without any additional growth factor source, as the gel medium for our studies. We followed procedures developed for detecting anchorage-independent growth of transformed tumor cells.
Our plan was to evaluate SACK effects on soft agar colonies derived from fresh bone marrow. Therefore, we wished to relate the morphology of colonies that arose from fresh bone marrow cells to those that arose from LT-CFCs in long-term cultures. […] After 9 weeks of culture, when adherent cells were evaluated after washing and then removal with half-strength trypsin, only type II colonies were detected (frequency=19×10^−5). […]

bone marrow cells = experiment: Non-adherent cell production in long-term bone marrow culture; assay type: cell-based, mice; details: Xs 1 mM, medium with 25% horse serum
Method: The non-adherent cell production rate (CPR) is defined as the total number of non-adherent cells produced in a single long-term culture normalized to days of culture (mean=95 days; range=66 to 132) and input cell number (range=5×10^6 to 20×10^6 cells). To develop long-term bone marrow cultures, freshly isolated bone marrow cells from tibia and femurs of 7-12 week-old female C57BL/6J mice were grown in culture medium supplemented with 25% horse serum.

LT-CFCs = experiment: Serial transfer of LT-CFC-derived type I colonies in soft agar; assay type: cell-based, murine
Method: Type I colonies were isolated from soft agar with either control medium or medium containing Xs (data for 1 mM and 3 mM Xs are combined). Colonies were dispersed and then plated in a single 6-well in soft agar developed with culture medium containing the respective concentration of Xs. After 1-3 weeks, the number and type of secondary colonies were scored by phase microscopy. Bars indicate the mean percent of positive wells for each secondary colony type. Data for the control condition are the means of two independent experiments; data for Xs condition are the means of four independent experiments. We next evaluated whether LT-CFCs which produced type I colonies could be propagated in soft agar. Pasteur pipettes were used to isolate type I colonies from soft agar developed in either control medium or medium containing Xs. Isolated colonies were dispersed and their cells replated in their entirety in a single well of a 6-well plate in soft agar developed with the respective Xs concentration.

Xs-D8 cells = experiment: Daughter pair analysis (DPA), BrdU incorporation; assay type: cell-based, rat; details: addition of Xs; n=58 pairs; 16% in absence of Xs
Method: The assay is called a “daughter pair analysis” (DPA). To perform the DPA, cells are plated in Xs-containing medium at microcolony density (approximately one cell per 40× microscope field). After allowing 4 to 5 hours for cell adherence, asymmetric cell kinetics are induced by changing to Xs-free medium. After about 16 hours to allow cell divisions to produce “daughter pairs”, the cells are labeled for 4 hours with the thymidine analogue bromodeoxyuridine (BrdU). The cells are then fixed and evaluated for BrdU incorporation by in situ immunofluorescence.
When grown in the absence of Xs, 84% of Xs-D8 BrdU(+) daughter pairs show a single BrdU(+) daughter (n=76 pairs; e.g., FIGS. 3C,F). The BrdU(+) daughter is the cycling stem cell daughter, whereas the BrdU(−) daughter corresponds to a non-cycling transit cell daughter that can undergo differentiation in peptide hydrogels (data not shown). Consistent with its ability to shift cells from asymmetric to exponential kinetics, addition of Xs increases the fraction of double-BrdU(+) Xs-D8 daughter pairs from 16% to 76% (n=58 pairs; e.g., FIGS. 3B,E). […] For 70 scored daughter pairs in Xs-free medium, the frequency of Xs-F1 symmetric pairs was 5 times the frequency of Xs-D8 symmetric pairs.

[3] = test system: p53-inducible model cells; details: p53-inducible model cells (Sherley et al. 1995a, Liu et al. 1998a); cited from earlier work

O=c1[nH]c(=O)c2ncn([C@@H]3O[C@H](CO)[C@@H](O)[C@H]3O)c2[nH]1 [Xs, xanthosine]
Increase in the frequency of type I colonies ([1]; 1 mM Xs, density of 1×10^5 bone marrow cells per 6-well): 1.5 fold | Mean fold increase in the frequency of type I colonies ([1]; 1 mM Xs, inputs of 5×10^5 or 1×10^6 cells): 5.3 fold | Mean fold increase in type I colony formation ([1]; Xs 1 mM and 3 mM, range 1.2 to 6.2, p<0.017): 2.9 fold | More type I colonies than control cultures (average) [2]: 35% | Increase in the rate of production of non-adherent, differentiated cells (bone marrow cells): 80% | Occurrence of multiple secondary colonies, more common in the presence of Xs (LT-CFCs; presence vs absence of Xs): 5 times | Cases of multiple secondary colonies that occurred in Xs-containing medium (LT-CFCs; secondary colonies from type I colonies, 1 mM and 3 mM Xs combined): Eighty-three | Type I colonies more frequent than type II and III colonies (LT-CFCs; secondary colonies in Xs-containing soft agar): 50% | Efficiency of giving rise to type I secondary colonies versus control type I colonies (LT-CFCs; type I colonies grown in Xs): 4 fold | Fraction of double-BrdU(+) Xs-D8 daughter pairs (Xs-D8 cells): 76% | Suppression of asymmetric cell kinetics [3]: can suppress the asymmetric cell kinetics
